These results are taken from patent US20080269279A1, “Substituted furo[2,3-B] pyridine derivatives as cannabinoid-1 receptor modulators” (priority 2007, published 2008).

Counter-ions that a name gives are not always drawn.

The subject of one assay is human GABA α1β3β2 receptors. Briefly: GABAa, 3H-muscimol binding assay. The note with it: activity at 10 μM as percentage of activity of control compound P18 at 10 μM (increase of 3H-muscimol binding). Here is the method:
Membranes from recombinant Ltk cells expressing human GABA α1β3β2 receptors were suspended in an ice-cold solution of 100 mM KCl, 10 mM KH2PO4, adjusted to pH=7.4 with 1 M KOH. Tritiated muscimol (PerkinElmer, Wellesley, Mass.) at a concentration of 2 nM, and serial five-fold dilutions of test compounds at 10 μM, 2.0 μM, 400 nM, 80 nM, 16 nM, 3.2 nM, 0.64 nM and 0.13 nM were mixed in 96-well plates containing 200 μL of membrane suspension. Cold muscimol and compound P18 were used as negative and positive controls respectively. The assay mixture was incubated at 4° C. for 2 hours, then harvested on GF/C filter plates and washed with ice-cold 50 mM Tris-Ci buffer. The filter plates were dried and counted in a Wallac MicroBeta® Trilux detector (Model 1450-030; PerkinElmer, Wellesley, Mass.), and the data were downloaded and analyzed using Prism 3.0. The activity of compound P18 at 10 μM was used as reference for the test compounds, and it was expressed as increasing ^3H-muscimol binding by 100%, whereas cold muscimol at 2 μM antagonized ^3H-muscimol binding by 100%. The tested compound's activity at 10 μM was expressed as a percentage of compound P18's activity at 10 μM.
As a reference, the parent compound (the compound not substituted with a R^4 heteroaryl, such as pyrazole or 1,2,4-oxadiazole, as indicated below) is also shown with its Gamma Amino Butyric Acid (GABA) Receptor activity. […] As a result, the compounds of the present invention in which R^4 is a heteroaryl, such as pyrazole or 1,2,4-oxadiazole, have the unexpected benefits of minimizing off target activity at the GABA receptor.
Note: % GABA is defined as the GABA activity of the indicated compound expressed as a percentage of the activity of control compound P18. NA=data not available.
With `CC(C)(O)C(=O)c1oc2nc(-c3ccc(-c4cn[nH]c4)cc3Cl)c(-c3ccc(Cl)cc3)cc2c1NC(=O)CO` [Example 31, N-[5-(4-Chlorophenyl)-6-[2-chloro-4-(1H-pyrazol-4-yl)phenyl]-2-(2-hydroxy-2-methylpropanoyl)-furo[2,3-b]pyridin-3-yl]-2-hydroxyacetamide], the “% GABA Example” value amounted to 30%.
On the same count and under the same terms, then `CC(C)C(=O)c1oc2nc(-c3ccc(-c4cc[nH]n4)cc3Cl)c(-c3ccc(Cl)cc3)cc2c1N` [Example 22, 1-{3-Amino-5-(4-chlorophenyl)-6-[2-chloro-4-(1H-pyrazol-3-yl)phenyl]furo-[2,3-b]pyridin-2-yl}-2-methylpropan-1-one], with 18%; and `Cc1c(C(=O)C(C)(C)C)oc2nc(-c3ccc(-c4cn[nH]c4)cc3Cl)c(-c3ccc(Cl)cc3)cc12` [Example 10, 1-{5-(4-Chlorophenyl)-6-[2-chloro-4-(1H-pyrazol-4-yl)phenyl]-3-methylfuro[2,3-b]pyridin-2-yl}-2,2-dimethylpropan-1-one], with 9%.
For the compound `Cc1c(C(=O)C(C)C)oc2nc(-c3ccc(-c4cc[nH]n4)cc3Cl)c(-c3ccc(Cl)cc3)cc12` [Example 25, 1-{5-(4-Chlorophenyl)-6-[2-chloro-4-(1H-pyrazol-3-yl)phenyl]-3-methylfuro[2,3-b]pyridin-2-yl}-2-methylpropan-1-one], the “% GABA Example” value stood at 35%.
As to `CCC(=O)c1oc2nc(-c3ccc(-c4cn[nH]c4)cc3Cl)c(-c3ccc(Cl)cc3)cc2c1NC(C)=O` [Example 5, N-{5-(4-Chlorophenyl)-6-[2-chloro-4-(1H-pyrazol-4-yl)phenyl]-2-propionylfuro[2,3-b]pyridin-3-yl}acetamide], the “% GABA Example” value came to 11%.
On the same count and under the same terms, then `CNC(=O)c1c(C(=O)C(C)(C)C)oc2nc(-c3ccc(-c4cc[nH]n4)cc3Cl)c(-c3ccc(Cl)cc3)cc12` [Example 29, 5-(4-Chlorophenyl)-6-[2-chloro-4-(1H-pyrazol-3-yl)phenyl]-2-(2,2-dimethylpropanoyl)-N-methylfuro[2,3-b]pyridine-3-carboxamide], with 20%.
Still for that read-out and setting: then `CC(C)(C)C(=O)c1oc2nc(-c3ccc(-c4cc[nH]n4)cc3Cl)c(-c3ccc(Cl)cc3)cc2c1NC(=O)CO` [Example 27, N-[5-(4-Chlorophenyl)-6-[2-chloro-4-(3H-pyrazol-5-yl)phenyl]-2-(2,2-dimethyl-propanoyl)furo[2,3-b]pyridin-3-yl]-2-hydroxyacetamide], with 29%; and `Cc1n[nH]cc1-c1ccc(-c2nc3oc(C(=O)C(C)(C)O)c(C)c3cc2-c2ccc(Cl)cc2)c(Cl)c1` [Example 34, 1-[6-[2-Chloro-4-(3-methyl-1H-pyrazol-4-yl)phenyl]-5-(4-chlorophenyl)-3-methylfuro[2,3-b]pyridin-2-yl]-2-hydroxy-2-methylpropan-1-one], with 29%; and `CC(C)(C)C(=O)c1oc2nc(-c3ccc(-c4cn[nH]c4)cc3Cl)c(-c3ccc(Cl)cc3)cc2c1NC(=O)C(C)(C)O` [Example 16, N-[5-(4-Chlorophenyl)-6-[2-chloro-4-(1H-pyrazol-4-yl)phenyl]-2-(2,2-dimethylpropanoyl)furo[2,3-b]pyridin-3-yl]-2-hydroxy-2-methylpropanamide], with 11%.
The same measure, in the same setting: then `Cc1c(C(=O)CC(C)C)oc2nc(-c3ccc(-c4cn[nH]c4)cc3Cl)c(-c3ccc(Cl)cc3)cc12` [Example 12, 1-{5-(4-Chlorophenyl)-6-[2-chloro-4-(1H-pyrazol-4-yl)phenyl]-3-methylfuro[2,3-b]pyridin-2-yl}-3-methylbutan-1-one], with 51%; and `CC(=O)Nc1c(C(=O)C(C)(C)O)oc2nc(-c3ccc(-c4cc[nH]n4)cc3Cl)c(-c3ccc(Cl)cc3)cc12` [Example 18, N-[5-(4-Chlorophenyl)-6-[2-chloro-4-(1H-pyrazol-3-yl)phenyl]-2-(2-hydroxy-2-methylpropanoyl)furo[2,3-b]pyridin-3-yl]acetamide], with 26%.
As for `Cc1n[nH]cc1-c1ccc(-c2nc3oc(C(=O)C(C)C)c(N4CCCC4=O)c3cc2-c2ccc(Cl)cc2)c(Cl)c1` [Example 39, 1-[6-[2-Chloro-4-(3-methyl-1H-pyrazol-4-yl)phenyl]-5-(4-chlorophenyl)-2-isobutyrylfuro[2,3-b]pyridin-3-yl]pyrrolidin-2-one], the “% GABA Example” value stood at 29%.
Regarding `CC(C)(C)C(=O)c1oc2nc(-c3ccc(-c4cn[nH]c4)cc3Cl)c(-c3ccc(Cl)cc3)cc2c1NC(=O)CO` [Example 32, N-[5-(4-Chlorophenyl)-6-[2-chloro-4-(1H-pyrazol-4-yl)phenyl]-2-(2,2-dimethylpropanoyl)furo[2,3-b]pyridin-3-yl]-2-hydroxyacetamide], the “% GABA Example” value stood at 29%.
For the compound `Cc1c(S(=O)(=O)C(C)(C)C)oc2nc(-c3ccc(-c4cc[nH]n4)cc3Cl)c(-c3ccc(Cl)cc3)cc12` [Example 24, 2-(Tert-butylsulfonyl)-5-(4-chlorophenyl)-6-[2-chloro-4-(1H-pyrazol-3-yl)phenyl]-3-methylfuro[2,3-b]pyridine], the “% GABA Example” value was determined as 13%.
On the same count and under the same terms, then `CC(=O)Nc1c(C(=O)C(C)C)oc2nc(-c3ccc(-c4c[nH]nc4C)cc3Cl)c(-c3ccc(Cl)cc3)cc12` [Example 33, N-[6-[2-Chloro-4-(3-methyl-1H-pyrazol-4-yl)phenyl]-5-(4-chlorophenyl)-2-isobutyrylfuro[2,3-b]pyridin-3-yl]acetamide], with 34%.
In the case of `CCC(=O)c1oc2nc(-c3ccc(-c4cn[nH]c4)cc3Cl)c(-c3ccc(Cl)cc3)cc2c1NC(=O)CO` [Example 17, N-{5-(4-Chlorophenyl)-6-[2-chloro-4-(1H-pyrazol-4-yl)phenyl]-2-propionylfuro[2,3-b]pyridin-3-yl}-2-hydroxyacetamidetrifluoroacetate (salt)], the “% GABA Example” value is listed as 36%.
On the same count and under the same terms, the value for `C[C@H](O)C(=O)Nc1c(C(=O)C(C)(C)C)oc2nc(-c3ccc(-c4cn[nH]c4)cc3Cl)c(-c3ccc(Cl)cc3)cc12` [Example 14, (2S)-N-[5-(4-Chlorophenyl)-6-[2-chloro-4-(1H-pyrazol-4-yl)phenyl]-2-(2,2-dimethylpropanoyl)furo[2,3-b]pyridin-3-yl]-2-hydroxypropanamide] was 13%.
Regarding `Cc1c(C(=O)C(C)(C)O)oc2nc(-c3ccc(-c4cc[nH]n4)cc3Cl)c(-c3ccc(Cl)cc3)cc12` [Example 23, 1-{5-(4-Chlorophenyl)-6-[2-chloro-4-(1H-pyrazol-3-yl)phenyl]-3-methylfuro[2,3-b]pyridin-2-yl}-2-hydroxy-2-methylpropan-1-one], the “% GABA Example” value was found to be 24%.

Still in this assay, the particulars now being: parent compound without R^4 heteroaryl; activity at 10 μM as percentage of activity of control compound P18 at 10 μM.
Turning to `CC(C)(C)C(=O)c1oc2nc(-c3ccccc3Cl)c(-c3ccc(Cl)cc3)cc2c1C(N)=O` [Example P12, reference compound], the “% GABA Parent” value is 40%.
On to `Cc1c(C(=O)C(C)(C)O)oc2nc(-c3ccccc3Cl)c(-c3ccc(Cl)cc3)cc12` [Example P7, reference compound], for which the “% GABA Parent” value was 75%.
The same measure, in the same setting: the value for `CCc1c(C(=O)C(C)(C)O)oc2nc(-c3ccccc3Cl)c(-c3ccc(Cl)cc3)cc12` [Example P19, reference compound] was 96%; that for `Cc1c(C(=O)CC(C)C)oc2nc(-c3ccccc3Cl)c(-c3ccc(Cl)cc3)cc12` [Example P10, reference compound] was 59%.
On the same count and under the same terms, then `CCC(=O)c1oc2nc(-c3ccccc3Cl)c(-c3ccc(Cl)cc3)cc2c1NC(C)=O` [Example P4, reference compound], with 76%; and `CC(C)(C)C(=O)c1oc2nc(-c3ccccc3Cl)c(-c3ccc(Cl)cc3)cc2c1N` [Example P5, reference compound], with 33%.
Turning to `CC(=O)Nc1c(C(=O)C(C)(C)C)oc2nc(-c3ccccc3Cl)c(-c3ccc(Cl)cc3)cc12` [Example P3, reference compound], the “% GABA Parent” value came out at 67%.
Consider `Cc1c(S(=O)(=O)C(C)(C)C)oc2nc(-c3ccccc3Cl)c(-c3ccc(Cl)cc3)cc12` [Example P9, reference compound], for which the “% GABA Parent” value is recorded as 29%.
Same read-out and setting: then `C[C@H](O)C(=O)Nc1c(C(=O)C(C)(C)C)oc2nc(-c3ccccc3Cl)c(-c3ccc(Cl)cc3)cc12` [Example P11, reference compound], with 94%.
`CC(C)(O)C(=O)c1oc2nc(-c3ccccc3Cl)c(-c3ccc(Cl)cc3)cc2c1N` [Example P13, reference compound]: the “% GABA Parent” value is recorded as 91%.
Still for that read-out and setting: the value for `Cc1c(C(=O)C(C)C)oc2nc(-c3ccccc3Cl)c(-c3ccc(Cl)cc3)cc12` [Example P14, reference compound] was 51%.
Same read-out and setting: then `CC(=O)Nc1c(C(=O)C(C)C)oc2nc(-c3ccccc3Cl)c(-c3ccc(Cl)cc3)cc12` [Example P2, reference compound], with 107%.
